Where a name gives a salt, the structure may show the parent alone.
Legend:
procollagenase [1] = details: pregnant guinea pig cervix; cited from earlier work
TIMPs = details: cultured rabbit uterine cervical fibroblasts; cited from earlier work
procollagenase [2] = details: cultured rabbit uterine cervical fibroblasts; cited from earlier work
collagenase = details: human cervix, intravenous; cited from earlier work
[3] = patients with advanced lung carcinoma; relative to levels required for MMP inhibition in vitro; cited from earlier work
[4] = test system: matrix metalloproteinases; details: human endometrium during the menstrual cycle; cited from earlier work
TIMP-3 = TIMP-3 mRNA expression in cultured human endometrial stromal cells; type: cell-based; details: vs control cells
Description: (§1) (a) GnRH Agonist: Trophoblast invasion is regulated in part by MMP-9 which can be inhibited by both TIMP-1 and TIMP-3 (25). […] Moreover, the expression of TIMP-1 appeared to be affected to a much greater extent than that of TIMP-3 (26).
(§2) Our laboratory has examined the ability of IL-1β and transforming growth factor-β (TGF-13) to regulate MMP-9, TIMP-1, and TIMP-3 mRNA expression in cultured human endometrial stromal cells (28). In these cultured endometrial stromal cells, TIMP-1 and TIMP-3 but not MMP-9 mRNA were expressed.

MMP-9 = MMP-9 mRNA expression in cultured human endometrial stromal cells; type: cell-based
Description: as §2

TIMP-1 = TIMP-1 mRNA expression in cultured human endometrial stromal cells; type: cell-based; details: vs control cells
Description: as §1, §2

Row | Molecule | level of TIMPs in the culture media (TIMPs) | levels of procollagenase in the culture medium (procollagenase [2]) | TIMP-3 mRNA expression (TIMP-3) | TIMP-1 mRNA expression (TIMP-1) | also measured
1 | C[C@]12CC[C@@H]3c4ccc(O)cc4CC[C@H]3[C@@H]1CC[C@@H]2O [17β-estradiol] | increased | declined | – | – | procollagenase activity (procollagenase [1]): doubled
2 | C[C@]12CC[C@H](OS(=O)(=O)O)CC1=CC[C@@H]1[C@@H]2CC[C@]2(C)C(=O)CC[C@@H]12 [DHEAS, dehydroepiandosterone sulfate] | – | – | – | – | increase in collagenase activity (collagenase): over 150%
3 | CNC(=O)[C@@H](NC(=O)[C@H](CC(C)C)[C@H](O)C(=O)NO)C(C)(C)C [Marimastat] | – | – | – | – | plasma levels [3]: substantially higher than those required for MMP inhibition in vitro
4 | CC(=O)[C@H]1CC[C@H]2[C@@H]3CCC4=CC(=O)CC[C@]4(C)[C@H]3CC[C@]12C [progesterone] | increased | declined | – | – | gene expression of matrix metalloproteinases [4]: repressed
5 | IL-1β: cytokine | – | – | decrease | decrease | procollagenase production (procollagenase [1]): two-fold increase; MMP-9 expression (MMP-9): stimulation
6 | TGF-β | – | – | augmented | augmented | –

Reference: US6420119B1, “Methods of diagnosing and treating urinary incontinence relating to collagen proteolysis in pelvic supporting tissue” (The Board of Trustees of the Leland Stanford Jr. University, priority 1999, dated 2002)
